The target in assay [1] is human 5-HT2A serotonin receptor (Homo sapiens (Human), UniProt P28223). Nature of the assay: [125I]DOI radioligand binding assay. Particulars: 0.5 nM [125I]DOI, COS7 membranes, recombinant human 5-HT2A. The protocol:
Compounds of the invention were tested for their ability to bind to a 5-HT2A serotonin receptor clone membrane preparation using a radioligand binding assay. Briefly, COS cells were transiently transfected with a pCMV expression vector containing a human 5-HT2A receptor (for the sequence of the receptor see U.S. Pat. No. 6,541,209, SEQ ID NO:24).
COS7 cells transfected with recombinant human 5-HT2A serotonin receptors were cultured for 48 h post transfection, collected, washed with ice-cold phosphate buffered saline, pH 7.4 (PBS), and then centrifuged at 48,000 g for 20 min at 4° C. The cell pellet was then resuspended in wash buffer containing 20 mM HEPES pH 7.4 and 0.1 mM EDTA, homogenized on ice using a Brinkman polytron, and recentrifuged at 48,000 g for 20 min at 4° C. The resultant pellet was then resuspended in 20 mM HEPES, pH 7.4, homogenized on ice, and centrifuged (48,000 g for 20 min at 4° C.). Crude membrane pellets were stored at −80° C. until used for radioligand binding assays.
Radioligand binding assays for human 5-HT2A serotonin receptor was conducted using the 5-HT2 agonist [^125I]DOI as radioligand. To define nonspecific binding, 10 μM DOI was used for all assays. For competitive binding studies, 0.5 nM [^125I]DOI was used and compounds were assayed over a range of 0.01 nM to 10 μM. Assays were conducted in a total volume of 200 μl in 96-well Perkin Elmer GF/C filter plates in assay buffer (50 mM Tris-HCl, pH 7.4, 0.5 mM EDTA, 5 mM MgCl2, and 10 μM pargyline). Assay incubations were performed for 60 min at room temperature and were terminated by rapid filtration under vacuum pressure of the reaction mixture over Whatman GF/C glass fiber filters presoaked in 0.5% PEI using a Brandell cell harvester. Filters were then washed several times with ice-cold wash buffer (50 mM Tris-HCl, pH 7.4). Plates were then dried at room temperature and counted in a Wallac MicroBeta scintillation counter.

For assay [2], the system named is DOI-induced hypolocomotion. In words: Attenuation of DOI-induced hypolocomotion in rats. Type of assay: in vivo, Sprague-Dawley rats. Particulars: compound 1-10 mg/kg p.o., DOI 1 mg/kg s.c. The protocol:
In this example, compounds of the invention were tested for inverse agonist activity by determining whether these compounds could attenuate DOI-induced hypolocomotion in rats in a novel environment. DOI is a potent 5-HT2A/2C receptor agonist that crosses the blood-brain barrier. The standard protocol used is described briefly below.
Male Sprague-Dawley rats weighing between 200-350 g were used for all tests. Rats were housed three to four per cage.
(R)-DOI HCl (C11H16INO2.HCl) was obtained from Sigma-Aldrich, and was dissolved in 0.9% saline. Compounds of the invention were synthesized at Arena Pharmaceuticals Inc., San Diego, Calif., and were dissolved in 100% PEG400. DOI was injected s.c. in a volume of 1 mL/kg, while compounds of the invention were administered p.o. in a volume of 1 mL/kg.
The “Motor Monitor” (Hamilton-Kinder, Poway, Calif.) was used for all activity measurement. This apparatus recorded rears using infrared photobeams. […]
In determining the effects of compounds of the invention on DOI-induced hypoactivity, animals were first injected with vehicle or the compound of the invention (1-10 mg/kg) in their home cages. […] Ten minutes after DOI administration, animals were placed into the activity apparatus and rearing activity was measured for 10 min.
Results (total rears over 10 minutes) were analyzed by t-test. […]

Assay [3] concerns DOCA-salt induced hypertension. Particulars: rats; cited from earlier work.
The subject of the next assay is diabetic rats. The following applies: cited from earlier work; for reduction in saphenous sensory conduction velocity: 14.9% reduction in diabetic rats; for correction of sciatic motor conduction deficit: 19.8% deficit in diabetic rats, range over all three drugs; for reduction in sciatic endoneurial blood flow: 44.7% reduction in diabetic rats.
The next assay concerns JC virus. The following applies: cited from earlier work.
Assay [4] deals with lower back pain, leg pain and numbness. The following applies: humans, lumbar disc herniation; cited from earlier work.
The next assay relates to pain in rats. The following applies: cited from earlier work.
The next assay deals with glaucoma patients. Particulars: cited from earlier work.
For another assay, the system named is diabetic nephropathy. Particulars: 24 months of treatment; cited from earlier work.
For assay [5], the system named is spontaneously hypertensive rats. The following applies: cited from earlier work.
The next assay relates to heatstroke. The following applies: in vivo; cited from earlier work.
Another assay concerns healthy adults. In words: Phase 1 trials, waking EEG. The format is in vivo, human.
Another assay relates to normal volunteers. Nature of the assay: Afternoon nap model of insomnia in normal volunteers. The format is in vivo, human. The source says:
APD125, a potent and selective 5-HT2A serotonin receptor inverse agonist is a member of the genus disclosed in the European Patent EP1558582. […] Sleep onset latency was not decreased by APD125. In the afternoon nap model, APD125 decreased microarousals, the number of sleep stage shifts, and number of awakenings after sleep onset.

Broadly, the IC50 is the concentration that inhibits the measured activity by half. For the molecule `Cc1[nH]nc(C(=O)N2CCN(CC(=O)c3ccc(F)cc3)CC2)c1Br` [Compound 52, 2-[4-(4-Bromo-5-methyl-1H-pyrazole-3-carbonyl)-piperazin-1-yl]-1-(4-fluoro-phenyl)-ethanone], in [1], the IC50 stood at 4.6 nM.

As for `Cn1nc(C(=O)N2CCN(CC(=O)c3ccc(F)cc3)CC2)cc1-c1ccco1` [Compound 66, 1-(4-Fluoro-phenyl)-2-[4-(5-furan-2-yl-1-methyl-1H-pyrazole-3-carbonyl)-piperazin-1-yl]-ethanone], the IC50 in [1] came out at 4.8 nM.

As to `Cn1cc(Cl)c(C(=O)N2CCN(CCc3ccccc3F)CC2)n1` [Compound 24, (4-Chloro-1-methyl-1H-pyrazol-3-yl)-{4-[2-(2-fluoro-phenyl)-ethyl]-piperazin-1-yl}-methanone], the IC50 in assay [1] worked out at 36 nM.

Consider `CCn1cc(Cl)c(C(=O)N2CCN(CC(=O)c3ccc(F)cc3)CC2)n1` [Compound 7, 2-[4-(4-Chloro-1-ethyl-1H-pyrazole-3-carbonyl)-piperazin-1-yl]-1-(4-fluoro-phenyl)-ethanone], for which the “attenuation of DOI-induced hypolocomotion (total rears over 10 minutes)” value in assay [2] is given as “attenuated DOI-induced hypolocomotion”.

Turning to `CN1CCN2c3ccccc3Cc3ccccc3C2C1` (centres unmarked) [Mainserin], in assay [3], the DOCA-salt induced hypertension entry is “prevent DOCA-salt induced hypertension”.

As to `Cc1nc2sccn2c(=O)c1CCN1CCC(=C(c2ccc(F)cc2)c2ccc(F)cc2)CC1` [ritanserin], in the assay on diabetic rats, the “reduction in saphenous sensory conduction velocity” value was “completely reversed”, the “correction of sciatic motor conduction deficit” value (shortened to “correction”) was 82.6-99.7% and the “reduction in sciatic endoneurial blood flow” value is “completely reversed”. In the assay with JC virus, the “JC virus infection of human glial cells” value was “inhibited JC virus infection of human glial cells”.

Take `Cc1[nH]nc(C(=O)N2CCN(CC(=O)c3ccc(F)cc3)CC2)c1F` [Compound 42, 2-[4-(4-Fluoro-5-methyl-1H-pyrazole-3-carbonyl)-piperazin-1-yl]-1-(4-fluoro-phenyl)-ethanone]: in assay [1], the IC50 was 11 nM.

In the case of `COc1cccc(CCc2ccccc2OCC(CN(C)C)OC(=O)CCC(=O)O)c1` (centres unmarked) [sarpogrelate], the “treatment of lower back pain, leg pain and numbness associated with sciatica” value in [4] was “effective treatment”. In the assay on pain in rats (intraperitoneal administration), the “analgesic effect on thermal induced pain” value is listed as “significant analgesic effect”. The “analgesic effect on inflammatory pain” value with pain in rats (intrathecal or intraperitoneal administration) was “significant analgesic effect”. In the assay on diabetic rats, the “reduction in saphenous sensory conduction velocity” value is reported as “completely reversed”, the “correction” value is given as 82.6-99.7% and the “reduction in sciatic endoneurial blood flow” value is “completely reversed”. The “intra ocular pressure (IOP)” value with glaucoma patients is given as “significantly lower IOP”. Moreover, the “urinary albumin excretion level” value in the assay with diabetic nephropathy is given as “significantly reduced”.

As to `Cn1nc(C(=O)N2CCN(CC(=O)c3ccc(F)cc3)CC2)cc1C(F)(F)F` [Compound 35, 1-(4-Fluoro-phenyl)-2-[4-(1-methyl-5-trifluoromethyl-1H-pyrazole-3-carbonyl)-piperazin-1-yl]-ethanone], the “attenuation of DOI-induced hypolocomotion (total rears over 10 minutes)” value in assay [2] is reported as “attenuated DOI-induced hypolocomotion”.

As to `O=CN1CCC(C(=O)NCCN2CCC(=C3c4ccccc4C=Cc4ccccc43)CC2)CC1` [AT-1015], in the assay with diabetic rats, the “reduction in saphenous sensory conduction velocity” value is reported as “completely reversed”, the “correction” value was 82.6-99.7% and the “reduction in sciatic endoneurial blood flow” value is recorded as “completely reversed”.

Consider `O=C(c1ccc(F)cc1)C1CCN(CCn2c(=O)[nH]c3ccccc3c2=O)CC1` [ketanserin], for which the blood pressure result in assay [5] was “stabilize blood pressure”. In addition, the “intra ocular pressure (IOP)” value in the assay on glaucoma patients is “significantly lower IOP”. Further, in the assay on heatstroke, the protection during heatstroke result was “protect against circulatory shocks, intracranial hypertension, and cerebral ischemia during heatstroke”. Moreover, the “JC virus infection of human glial cells” value in the assay on JC virus is reported as “inhibited JC virus infection of human glial cells”.

Regarding `COc1ccc(NC(=O)Nc2ccc(F)cc2F)cc1-c1c(Br)cnn1C` [APD125], in the assay with healthy adults, the “dose of maximal effects on waking EEG” value is 40 to 80 mg and the “effects on waking EEG” value is “vigilance-lowering effects”. In addition, in the assay on healthy adults (waking EEG), the “time of peak effects after dosing” value was 24 h. In addition, in the assay on normal volunteers (human, in vivo), the REM sleep result was “at the expense of REM sleep”, the microarousals result is on record as “decreased”, the “number of awakenings after sleep onset” value is reported as “decreased” and the “number of sleep stage shifts” value is reported as “decreased”. Further, the sleep onset latency result with normal volunteers (human, in vivo) is on record as “not decreased”. Moreover, in the assay on normal volunteers (primarily during the early part of sleep), the “slow wave sleep and associated parameters” value was “increased slow wave sleep and associated parameters in a dose-dependent manner”.

Values taken from patent US9434692B2, “Pyrazole derivatives as modulators of the 5-HT2A serotonin receptor useful for the treatment of disorders related thereto” (Arena Pharmaceuticals, Inc., priority 2006, dated 2016).
